In US7504394B2 (Wyeth, priority 2004, dated 2009):
Values after ≈ are worked out from the molar mass of the structure shown.

Key:
[1] = test system: uterine response; details: preclinical models of uterine stimulation; cited from earlier work
[2] = test system: ovariectomized rat model of osteopenia; details: cited from earlier work
[3] = test system: MCF-7 cell line (human breast cancer cell line); details: cited from earlier work
[4] = Equilibrium solubility of bazedoxifene ascorbate in 0.0005 M acetic acid at 37° C.; assay type: physicochemical; details: aqueous buffer, thermodynamic from solid, filtered 0.2 um, HPLC
Description: The samples were rotated at 50 rotation/min for 18 hours. All samples were filtered through 0.2 um (Nylon Acrodisc) filter. Samples were analyzed by HPLC.

Structure (SMILES) | stimulation of uterine response [1] | effect on bone loss [2] | effect on cholesterol [2] | estrogen agonist/antagonist behaviour [3] | solubility thermodynamic at 18 h [4] [µg/mL]
Cc1c(-c2ccc(O)cc2)n(Cc2ccc(OCCN3CCCCCC3)cc2)c2ccc(O)cc12 [bazedoxifene acetate] | little or no stimulation of uterine response | estrogen agonist-like effect in preventing bone loss | reducing cholesterol | behaves as an estrogen antagonist | 
Cc1c(-c2ccc(O)cc2)n(Cc2ccc(OCCN3CCCCCC3)cc2)c2ccc(O)cc12 [bazedoxifene ascorbate, 1-[4-(2-azepan-1-yl-ethoxy)-benzyl]-2-(4-hydroxy-phenyl)-3-methyl-1H-indol-5-ol] |  |  |  |  | 1660 (≈ 3.53 mM)
